According to ChEMBL document CHEMBL4808208, “Hepatoselective Dihydroquinolizinone Bis-acids for HBsAg mRNA Degradation” (ACS Med Chem Lett, 2021):
Values joined by “and” are separate entries in the source; they are usually repeats but may differ in a detail not shown here. Identical values can stand only once. Active and inactive are the calls of the source. The calls are words filed in the database; no cut-off is given here.

Tests used:
Cytochrome P450 2C8 = molecular target: T1, Cytochrome P450 2C8 (Homo sapiens, UniProt P10632); test: Inhibition of CYP2C8 in human liver microsomes using paclitaxel as substrate preincubated for 5 mins followed by NADPH addition by LC-MS/MS analysis; type: ADME
T1 sequence (P10632 whole entry): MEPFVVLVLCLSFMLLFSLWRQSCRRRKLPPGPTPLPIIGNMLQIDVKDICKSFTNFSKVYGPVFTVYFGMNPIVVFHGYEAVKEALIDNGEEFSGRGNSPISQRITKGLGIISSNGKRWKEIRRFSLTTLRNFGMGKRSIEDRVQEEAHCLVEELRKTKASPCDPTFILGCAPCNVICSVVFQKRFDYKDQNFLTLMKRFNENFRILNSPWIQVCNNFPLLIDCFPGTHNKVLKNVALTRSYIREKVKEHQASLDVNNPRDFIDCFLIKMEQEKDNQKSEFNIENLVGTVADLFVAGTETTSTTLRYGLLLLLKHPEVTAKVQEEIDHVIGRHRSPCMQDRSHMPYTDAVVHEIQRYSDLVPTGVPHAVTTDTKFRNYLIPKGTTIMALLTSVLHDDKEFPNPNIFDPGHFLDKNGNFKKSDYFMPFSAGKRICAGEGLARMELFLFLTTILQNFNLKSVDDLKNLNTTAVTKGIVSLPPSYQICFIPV

[1] = Ratio of AUC(last) in liver to plasma in CD-1 mouse at 8 mg/kg, po by LC-MS/MS analysis; type: ADME, organism-based
[2] = Drug concentration in CD-1 mouse liver at 8 mg/kg, po measured after 8 hrs by LC-MS/MS analysis; type: ADME, organism-based; conditions: read-out: Ct
Cytochrome P450 3A4 = Cytochrome P450 3A4 (Homo sapiens, UniProt P08684); test: Inhibition of CYP3A4 in human liver microsomes using testosterone as substrate preincubated for 5 mins followed by NADPH addition by LC-MS/MS analysis; type: ADME
[3] = Cmax in CD-1 mouse plasma at 8 mg/kg, po measured for 24 hrs by LC-MS/MS analysis; type: ADME, organism-based; set-up: route oral, dose 8 mg/kg, time 24 hrs
[4] = Drug concentration in CD-1 mouse liver at 8 mg/kg, po measured after 2 hrs by LC-MS/MS analysis; type: ADME, organism-based; conditions: read-out: Ct
Hepatitis B virus = test: Antiviral activity against Hepatitis B virus infected in human HepG2.2.15 cells assessed as reduction in HBV subgenomic 2.4/2.1 kb mRNA level at 1 uM measured after 5 days by Northern blot analysis; type: functional, organism-based; conditions: time 5.0 day
Cytochrome P450 1A2 = molecular target: T2, Cytochrome P450 1A2 (Homo sapiens, UniProt P05177); test: Inhibition of CYP1A2 in human liver microsomes using phenacetin as substrate preincubated for 5 mins followed by NADPH addition by LC-MS/MS analysis; type: ADME
T2 sequence (P05177 whole entry): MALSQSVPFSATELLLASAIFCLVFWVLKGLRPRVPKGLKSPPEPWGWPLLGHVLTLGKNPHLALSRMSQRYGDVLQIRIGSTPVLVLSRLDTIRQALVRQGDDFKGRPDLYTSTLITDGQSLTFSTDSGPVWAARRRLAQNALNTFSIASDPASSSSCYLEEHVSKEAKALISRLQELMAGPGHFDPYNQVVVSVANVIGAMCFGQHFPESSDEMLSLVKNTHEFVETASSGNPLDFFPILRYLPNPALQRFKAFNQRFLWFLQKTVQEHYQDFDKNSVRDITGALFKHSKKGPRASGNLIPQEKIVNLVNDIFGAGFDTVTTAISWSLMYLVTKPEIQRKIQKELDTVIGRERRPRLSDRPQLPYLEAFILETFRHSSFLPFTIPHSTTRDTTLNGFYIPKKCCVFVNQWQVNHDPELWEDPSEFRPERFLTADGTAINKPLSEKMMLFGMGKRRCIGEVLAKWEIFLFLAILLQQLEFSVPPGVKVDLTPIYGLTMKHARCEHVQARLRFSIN

Sequence of Cytochrome P450 3A4 (P08684 whole entry): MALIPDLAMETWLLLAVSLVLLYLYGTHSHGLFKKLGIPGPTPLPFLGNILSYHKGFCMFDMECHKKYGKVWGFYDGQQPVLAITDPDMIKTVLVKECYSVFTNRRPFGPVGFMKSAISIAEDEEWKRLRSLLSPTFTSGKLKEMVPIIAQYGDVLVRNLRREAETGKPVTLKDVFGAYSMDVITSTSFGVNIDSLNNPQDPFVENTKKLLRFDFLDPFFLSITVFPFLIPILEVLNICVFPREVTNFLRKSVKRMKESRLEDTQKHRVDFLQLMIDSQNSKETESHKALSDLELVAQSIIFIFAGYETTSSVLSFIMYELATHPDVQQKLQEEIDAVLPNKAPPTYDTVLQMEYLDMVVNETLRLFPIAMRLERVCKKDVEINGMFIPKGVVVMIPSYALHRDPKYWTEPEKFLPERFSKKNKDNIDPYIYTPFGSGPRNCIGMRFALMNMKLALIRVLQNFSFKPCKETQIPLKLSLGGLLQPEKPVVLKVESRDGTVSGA

For `COc1cc2c(cc1OCCCCCCC(=O)O)C[C@@H](C(C)C)n1cc(C(=O)O)c(=O)cc1-2`, the IC50 (Cytochrome P450 2C8) was > 10 µM, the Kp [1] was 37.7 and the concentration at 8 h [2] was 63 ng/mL and 140 nM. The IC50 (Cytochrome P450 3A4) was > 10 µM, the Cmax [3] was 16.1 ng/mL and the concentration at 2 h [4] was 261 ng/mL and 570 nM. For the same molecule, the Activity (Hepatitis B virus) was “Active” and the IC50 (Cytochrome P450 1A2) was > 10 µM.
